According to PubChem BioAssay (NCI):
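The concentration for 50% growth inhibition is given as GI50. The concentration for full growth arrest is given as TGI.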

Legend:
Test in all cases: inhibition of tumour cell growth, NCI panel, 384-well format
U251 glioblastoma = system: U251 glioblastoma
A498 renal = system: A498 renal
NCI/ADR-RES ovarian = system: NCI/ADR-RES ovarian
NCI-H460 NSCLC = system: NCI-H460 NSCLC
MDA-MB-468 breast = system: MDA-MB-468 breast
T-47D breast = system: T-47D breast
SR leukemia = system: SR leukemia
RXF 393 renal = system: RXF 393 renal
CAKI-1 renal = system: CAKI-1 renal
MALME-3M melanoma = system: MALME-3M melanoma
HCC-2998 colon = system: HCC-2998 colon
ACHN renal = system: ACHN renal
KM12 colon = system: KM12 colon
OVCAR-4 ovarian = system: OVCAR-4 ovarian
HT29 colon = system: HT29 colon
HOP-62 NSCLC = system: HOP-62 NSCLC
SNB-19 CNS = system: SNB-19 CNS
BT-549 breast = system: BT-549 breast
786-0 renal = system: 786-0 renal
MDA-MB-231 breast = system: MDA-MB-231 breast
OVCAR-5 ovarian = system: OVCAR-5 ovarian
NCI-H522 lung = system: NCI-H522 lung
NCI-H226 lung = system: NCI-H226 lung
NCI-H322M lung = system: NCI-H322M lung
SN12C renal = system: SN12C renal
OVCAR-3 ovarian = system: OVCAR-3 ovarian
M14 melanoma = system: M14 melanoma
HCT-15 colon = system: HCT-15 colon
DU-145 prostate = system: DU-145 prostate
UACC-62 melanoma = system: UACC-62 melanoma
HOP-92 NSCLC = system: HOP-92 NSCLC
UO-31 renal = system: UO-31 renal
MDA-MB-435 melanoma = system: MDA-MB-435 melanoma
SK-MEL-5 melanoma = system: SK-MEL-5 melanoma
RPMI-8226 leukemia = system: RPMI-8226 leukemia
PC-3 prostate = system: PC-3 prostate
HS 578T breast = system: HS 578T breast
HL-60(TB) leukemia = system: HL-60(TB) leukemia
SW-620 colon = system: SW-620 colon
SK-OV-3 ovarian = system: SK-OV-3 ovarian
SF-539 CNS = system: SF-539 CNS
SF-295 CNS = system: SF-295 CNS
K-562 leukemia = system: K-562 leukemia
A549 NSCLC = system: A549 NSCLC
UACC-257 melanoma = system: UACC-257 melanoma
OVCAR-8 ovarian = system: OVCAR-8 ovarian
LOX IMVI melanoma = system: LOX IMVI melanoma
SK-MEL-28 melanoma = system: SK-MEL-28 melanoma
IGROV1 ovarian = system: IGROV1 ovarian
SNB-75 CNS = system: SNB-75 CNS
MOLT-4 leukemia = system: MOLT-4 leukemia
COLO 205 colon = system: COLO 205 colon
SF-268 CNS = system: SF-268 CNS
EKVX NSCLC = system: EKVX NSCLC
NCI-H23 lung = system: NCI-H23 lung
TK-10 renal = system: TK-10 renal
CCRF-CEM leukemia = system: CCRF-CEM leukemia

`COc1ccc(-c2ccc3c(N4CCOC[C@@H]4C)nc(N4CCOC[C@@H]4C)nc3n2)cc1CO` was tested, and the GI50 (U251 glioblastoma) was 87.2 nM, the TGI (U251 glioblastoma) was 17400 nM and the GI50 (A498 renal) was under 10 nM. It also gave a TGI (A498 renal) of 51.9 nM, a GI50 (NCI/ADR-RES ovarian) of 102 nM and a TGI (NCI/ADR-RES ovarian) of 26700 nM. The GI50 (NCI-H460 NSCLC) was under 10 nM, the TGI (NCI-H460 NSCLC) was 11900 nM and the GI50 (MDA-MB-468 breast) was 15.2 nM. For the same compound, the TGI (MDA-MB-468 breast) was 56.7 nM, the GI50 (T-47D breast) was under 10 nM and the TGI (T-47D breast) was 23.6 nM. The GI50 (SR leukemia) was 11.3 nM, the TGI (SR leukemia) was 43 nM and the GI50 (RXF 393 renal) was 27.3 nM. It also gave a TGI (RXF 393 renal) of 12000 nM, a GI50 (CAKI-1 renal) of 31.6 nM and a TGI (CAKI-1 renal) of 842 nM. For the same compound, the GI50 (MALME-3M melanoma) was under 10 nM, the TGI (MALME-3M melanoma) was 34.7 nM and the GI50 (HCC-2998 colon) was 77 nM. For the same compound, the TGI (HCC-2998 colon) was 14900 nM, the GI50 (ACHN renal) was 25.4 nM and the TGI (ACHN renal) was 11500 nM. The GI50 (KM12 colon) was 29.4 nM, the TGI (KM12 colon) was 11400 nM and the GI50 (OVCAR-4 ovarian) was 12.9 nM. The TGI (OVCAR-4 ovarian) was 95.3 nM, the GI50 (HT29 colon) was 102 nM and the TGI (HT29 colon) was 14700 nM. For the same compound, the GI50 (HOP-62 NSCLC) was 29.2 nM, the TGI (HOP-62 NSCLC) was 1880 nM and the GI50 (SNB-19 CNS) was 249 nM. It also gave a TGI (SNB-19 CNS) of 18500 nM, a GI50 (BT-549 breast) of 18.2 nM and a TGI (BT-549 breast) of 192 nM. The GI50 ([…]-0 renal) was 42.2 nM, the TGI (786-0 renal) was 12100 nM and the GI50 (MDA-MB-231 breast) was 21.9 nM. The TGI (MDA-MB-231 breast) was 11100 nM, the GI50 (OVCAR-5 ovarian) was 30.2 nM and the TGI (OVCAR-5 ovarian) was 1900 nM. For the same compound, the GI50 (NCI-H522 lung) was 22.9 nM, the TGI (NCI-H522 lung) was 10000 nM and the GI50 (NCI-H226 lung) was 17.9 nM. For the same compound, the TGI (NCI-H226 lung) was 284 nM, the GI50 (NCI-H322M lung) was 27.6 nM and the TGI (NCI-H322M lung) was 11100 nM. The GI50 (SN12C renal) was 19 nM, the TGI (SN12C renal) was 11100 nM and the GI50 (OVCAR-3 ovarian) was 29.9 nM. For the same compound, the TGI (OVCAR-3 ovarian) was 11100 nM, the GI50 (M14 melanoma) was 19 nM and the TGI (M14 melanoma) was 10500 nM. It also gave a GI50 (HCT-15 colon) of 23.9 nM, a TGI (HCT-15 colon) of 11300 nM and a GI50 (DU-145 prostate) of 40.6 nM. For the same compound, the TGI (DU-145 prostate) was 13300 nM, the GI50 (UACC-62 melanoma) was 18.9 nM and the TGI (UACC-62 melanoma) was 208 nM. It also gave a GI50 (HOP-92 NSCLC) of 19.1 nM, a TGI (HOP-92 NSCLC) of 340 nM and a GI50 (UO-31 renal) of 81.8 nM. For the same compound, the TGI (UO-31 renal) was 19000 nM, the GI50 (MDA-MB-435 melanoma) was 42.4 nM and the TGI (MDA-MB-435 melanoma) was 562 nM. It also gave a GI50 (SK-MEL-5 melanoma) of 10.5 nM, a TGI (SK-MEL-5 melanoma) of 89.1 nM and a GI50 (RPMI-8226 leukemia) of under 10 nM. It also gave a TGI (RPMI-8226 leukemia) of 10 nM, a GI50 (PC-3 prostate) of 16.1 nM and a TGI (PC-3 prostate) of 10200 nM. It also gave a GI50 (HS 578T breast) of 12.8 nM, a TGI (HS 578T breast) of 56.3 nM and a GI50 (HL-60(TB) leukemia) of 322 nM. It also gave a TGI (HL-60(TB) leukemia) of 12800 nM, a GI50 (SW-620 colon) of 120 nM and a TGI (SW-620 colon) of 13300 nM. It also gave a GI50 (SK-OV-3 ovarian) of 17.6 nM, a TGI (SK-OV-3 ovarian) of 365 nM and a GI50 (SF-539 CNS) of 32.2 nM. For the same compound, the TGI (SF-539 CNS) was 11000 nM, the GI50 (SF-295 CNS) was 12.2 nM and the TGI (SF-295 CNS) was 87.7 nM. The GI50 (K-562 leukemia) was 56.3 nM, the TGI (K-562 leukemia) was 13200 nM and the GI50 (A549 NSCLC) was 20.4 nM. The TGI (A549 NSCLC) was 6350 nM, the GI50 (UACC-257 melanoma) was 42.9 nM and the TGI (UACC-257 melanoma) was 396 nM. For the same compound, the GI50 (OVCAR-8 ovarian) was 46.2 nM, the TGI (OVCAR-8 ovarian) was 11600 nM and the GI50 (LOX IMVI melanoma) was 31.6 nM. It also gave a TGI (LOX IMVI melanoma) of 294 nM, a GI50 (SK-MEL-28 melanoma) of 19.9 nM and a TGI (SK-MEL-28 melanoma) of 436 nM. It also gave a GI50 (IGROV1 ovarian) of 12.2 nM, a TGI (IGROV1 ovarian) of 56.9 nM and a GI50 (SNB-75 CNS) of 14.3 nM. For the same compound, the TGI (SNB-75 CNS) was 207 nM, the GI50 (MOLT-4 leukemia) was 17.9 nM and the TGI (MOLT-4 leukemia) was 322 nM. The GI50 (COLO 205 colon) was 24.4 nM, the TGI (COLO 205 colon) was 1350 nM and the GI50 (SF-268 CNS) was 62.9 nM. It also gave a TGI (SF-268 CNS) of 12900 nM, a GI50 (EKVX NSCLC) of 23.3 nM and a TGI (EKVX NSCLC) of 583 nM. The GI50 (NCI-H23 lung) was 60 nM, the TGI (NCI-H23 lung) was 14300 nM and the GI50 (TK-10 renal) was 93.8 nM. For the same compound, the TGI (TK-10 renal) was 749 nM, the GI50 (CCRF-CEM leukemia) was 14.9 nM and the TGI (CCRF-CEM leukemia) was 1820 nM.
